Legend:
mouse NASH model = assay: High fat diet + CCl4 mouse NASH model; type: in vivo, C57BL/6J mice
Description: C57BL/6J mice were fed a high fat diet for 10 weeks to induce obesity (>38 g BW). Obese mice were injected intraperitoneally (i.p.) twice a week for four weeks with 0.5 μl/g 25% CCl4 (formulated in olive oil) to induce fibrosis, and one group of normal BW mice were injected i.p. twice a week for four weeks with olive oil to serve as a healthy control. […] On CCl4 dosing days, CCl4 was administered at 4 hours post compound or vehicle dosing. On day 27, all animals were fasted for about 16 hours before terminal euthanasia. On day 28, all animals were sacrificed and various biological parameters were analyzed. Total body, liver, heart and brain weight were measured and changes in liver and heart weight were normalized using brain weight.
Liver samples were collected for whole transcriptome analysis by RNA sequencing (RNAseq). RNAseq library (n=5 per group) preparation and sequencing was performed using Illumina standard protocols. Alignment of sequencing reads was performed using STAR aligner software and read counts were estimated using RSEM. Differentially expressed genes (compared to vehicle-treated NASH control mice) were determined using EdgeR software. Gene ontology analysis was performed using Advaita software with fold-change and adjusted p-value cutoffs of >1.5 and <0.05, respectively. Gene ontologies were derived from the Gene Ontology Consortium database (2019 Apr. 26) (Ashburner et al., Gene ontology: Tool for the unification of biology. Nature Genetics 25(1): 25-9 (2000); Gene Ontology Consortium, Creating the Gene Ontology Resource: Design and Implementation. Genome Research 11: 1425-1433 (2001)).

[1] = Multiple ascending dose trial: adverse event and safety monitoring; type: in vivo, human; conditions: for AEs by relationship to drug: Not related / AEs by relationship to drug: Possibly related / AEs by relationship to drug: Related / AEs by relationship to drug: Unlikely related / Any AE, all CTCAE grades / Grade 1 / Grade 2 or higher / Serious AEs: N = 6
Description: A multiple-ascending dose clinical trial of Compound 1 was performed.

[2] = Multiple ascending doses in healthy subjects with elevated LDL-c: safety; type: in vivo, human; conditions: 1, 3, 6 or 10 mg once daily for 14 days
Excerpt: Objectives: Assess the overall safety and tolerability of multiple ascending doses of Compound 1 in healthy subjects with elevated LDL-c.
Primary Endpoints: Treatment-emergent adverse events (TEAEs), vital signs, clinical laboratory parameters, and electrocardiogram (ECG) monitoring.

BCS classification = type: physicochemical
BCRP = target: T1, BCRP (Homo sapiens, UniProt Q9UNQ0); assay: In vitro transporter inhibition, BCRP; type: in vitro ADME
T1 sequence (Q9UNQ0 1-655): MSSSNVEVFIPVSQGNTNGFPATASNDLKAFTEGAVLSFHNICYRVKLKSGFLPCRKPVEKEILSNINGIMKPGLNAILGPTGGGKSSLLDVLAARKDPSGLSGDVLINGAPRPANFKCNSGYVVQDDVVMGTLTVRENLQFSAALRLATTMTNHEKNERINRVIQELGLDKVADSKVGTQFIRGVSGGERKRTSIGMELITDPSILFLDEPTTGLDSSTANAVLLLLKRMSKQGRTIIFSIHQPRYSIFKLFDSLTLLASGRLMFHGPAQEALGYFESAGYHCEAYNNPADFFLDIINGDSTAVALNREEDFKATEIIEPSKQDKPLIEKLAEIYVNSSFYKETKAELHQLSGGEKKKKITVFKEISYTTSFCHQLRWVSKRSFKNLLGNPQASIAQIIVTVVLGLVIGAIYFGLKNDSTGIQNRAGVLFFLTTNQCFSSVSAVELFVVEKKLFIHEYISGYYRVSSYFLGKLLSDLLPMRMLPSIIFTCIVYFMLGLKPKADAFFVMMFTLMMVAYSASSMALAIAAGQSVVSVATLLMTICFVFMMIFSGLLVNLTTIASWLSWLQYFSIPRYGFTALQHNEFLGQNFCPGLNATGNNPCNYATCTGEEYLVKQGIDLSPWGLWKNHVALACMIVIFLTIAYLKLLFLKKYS

[3] = system: biopsy-confirmed DIO-NASH mice; assay: DIO-GAN NASH mice: liver transcriptomics by RNAseq; type: in vivo, C57BL/6JRj mice; conditions: RNAseq at termination
Excerpt: C57BL/6JRj male mice (n=138) were fed the Gubra Amylin NASH (GAN) diet (40% fat, 22% fructose, 2% cholesterol [D09100310, Research Diets]) or lean chow diet for 35 weeks before treatment start. Prior to treatment all animals underwent liver biopsy for histological confirmation (steatosis score ≥2 and fibrosis stage ≥1) and stratification using the nonalcoholic fatty liver disease (NAFLD) activity scoring (NAS) and fibrosis staging system. The diet-induced obese mice on GAN diet (DIO-GAN) were randomized to 8 treatment groups (Table 16) based on percent-area of picrosirius red (PSR) staining. […] Vehicle-dosed lean chow-fed controls served as healthy controls (n=10). Mice were maintained on their respective diets (GAN or lean chow) for the duration of the study. Within-subject comparisons (pre-vs. post-treatment) were performed for liver biopsy histopathological scores. Terminal quantitative endpoints included plasma/liver biochemistry, liver histomorphometry, and liver transcriptomic analysis by RNAseq.
Tissue was collected and snap-frozen in liquid nitrogen and stored at −80 C until processing. RNA was isolated using a NucleoSpin kit ([…]-NAGEL). […]

[4] = 14-day daily dosing up to 10 mg

N#Cc1nn(-c2cc(Cl)c(Oc3n[nH]c(=O)c4ccccc34)c(Cl)c2)c(=O)[nH]c1=O [Compound 1, 2-(3,5-dichloro-4-((4-oxo-3,4-dihydrophthalazin-1-yl)oxy)phenyl)-3,5-dioxo-2,3,4,5-tetrahydro-1,2,4-triazine-6-nitrile]
liver fibrosis (histology) (mouse NASH model; 3 and 10 mpk, 28 days): significantly reduced liver fibrosis
liver inflammation (histology) (mouse NASH model; 28 days): trend in inflammation reduction
liver steatosis (histology) (mouse NASH model; all doses tested, 28 days): significantly reduced steatosis at all doses tested
serum total cholesterol, triglycerides and ALT (mouse NASH model; all doses tested, 28 days): significantly reduced
expression of genes associated with collagen extracellular matrix and hepatic stellate cell activation (mouse NASH model; liver RNAseq vs NASH control mice): significant effect
liver/brain weight (mouse NASH model; orally once a day for 28 days): significantly reduced
total body weight or heart/brain weight (mouse NASH model; orally once a day for 28 days): no effect
steady state plasma AUC0-∞ sufficient to ensure efficacy (mouse NASH model; preclinical animal models): approximately 3,320 ng*hg/mL
AEs by relationship to drug: Not related ([1]; 3 mg once daily for 14 days): 1 (16.7%) n (%)
AEs by relationship to drug: Possibly related ([1]; 3 mg once daily for 14 days): 0 n (%)
AEs by relationship to drug: Related ([1]; 3 mg once daily for 14 days): 0 n (%)
AEs by relationship to drug: Unlikely related ([1]; 3 mg once daily for 14 days): 0 n (%)
Any AE, all CTCAE grades ([1]; 3 mg once daily for 14 days): 1 (16.7%) n (%)
Grade 1 ([1]; 3 mg once daily for 14 days): 1 (16.7%) n (%)
Grade 2 or higher ([1]; 3 mg once daily for 14 days): 0 n (%)
Serious AEs ([1]; 3 mg once daily for 14 days): 0 n (%)
AEs by relationship to drug: Not related ([1]; 6 mg once daily for 14 days): 0 n (%)
AEs by relationship to drug: Possibly related ([1]; 6 mg once daily for 14 days): 1 (16.7%) n (%)
AEs by relationship to drug: Related ([1]; 6 mg once daily for 14 days): 0 n (%)
AEs by relationship to drug: Unlikely related ([1]; 6 mg once daily for 14 days): 0 n (%)
Any AE, all CTCAE grades ([1]; 6 mg once daily for 14 days): 1 (16.7%) n (%)
Grade 1 ([1]; 6 mg once daily for 14 days): 1 (16.7%) n (%)
Grade 2 or higher ([1]; 6 mg once daily for 14 days): 0 n (%)
Serious AEs ([1]; 6 mg once daily for 14 days): 0 n (%)
AEs by relationship to drug: Not related ([1]; 10 mg once daily for 14 days): 2 (33.3%) n (%)
AEs by relationship to drug: Possibly related ([1]; 10 mg once daily for 14 days): 0 n (%)
AEs by relationship to drug: Related ([1]; 10 mg once daily for 14 days): 0 n (%)
AEs by relationship to drug: Unlikely related ([1]; 10 mg once daily for 14 days): 0 n (%)
Any AE, all CTCAE grades ([1]; 10 mg once daily for 14 days): 2 (33.3%) n (%)
Grade 1 ([1]; 10 mg once daily for 14 days): 2 (33.3%) n (%)
Grade 2 or higher ([1]; 10 mg once daily for 14 days): 0 n (%)
Serious AEs ([1]; 10 mg once daily for 14 days): 0 n (%)
ALT increase to ≥2×ULN ([1]; 14-day daily dosing): no treated subject
ECGs, cardiac biomarkers, or other clinical lab tests ([1]; 14-day daily dosing): No remarkable changes
TSH or free T3 ([1]; 14-day daily dosing): without clear change
free T4 ([1]; 14-day daily dosing): declined in dose-dependent fashion
free testosterone ([1]; 14-day daily dosing): no significant change in free levels
total testosterone ([1]; 14-day daily dosing): Dose-dependent total testosterone increases
Heart rate and blood pressure [1, 4]: remained stable throughout the study
grade of AEs [1, 4]: Grade 1
tolerability [1, 4]: overall well-tolerated
GGT ([1]; 14-day daily dosing, values remaining below ULN): Dose-dependent GGT increases
ALT increase to ≥2×ULN [2]: No subject
free T4 [2]: Dose-dependent declines
safety and tolerability [2]: generally safe and well-tolerated
severity of AEs [2]: mild to moderate with no apparent dose relationship
BCS classification (BCS classification): BCS Class IV

Cn1cc(C(=O)O)c2ccc(C3CCC(OCc4c(-c5c(Cl)cccc5Cl)noc4C4CC4)CC3)cc21 (centres unmarked) [Compound 2]
IC50 (BCRP): 4.39 µM
liver expression of Col1a1, Acta2, Lgals3 and CD146 relative to DIO-GAN vehicle control [3]: significantly reduced expression
liver expression of Scd1 [3]: reduced

Source: patent US20240293416A1, “TREATMENT OF LIVER DISORDERS WITH A THR-ß AGONIST” (Terns Pharmaceuticals, Inc., priority 2021, published 2024)
